Target: T1, HIPK2 (Homo sapiens, UniProt Q9H2X6)
T1 construct: purchased Thermo Fisher Scientific (Life Technologies) SelectScreen
Assay: SelectScreen Z'LYTE
Assay type: biochemical
Summary of the method: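 Compound tested in SelectScreen activity assays, Z'LYTE for CSF1R, CDK1/cyclin B and MAP2K6 and Adapta for CAMK1. ATP for CAMK1 was listed as 10, and Km app was used for CSF1R. Results are expressed in percent.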

T1 sequence (Q9H2X6 whole entry): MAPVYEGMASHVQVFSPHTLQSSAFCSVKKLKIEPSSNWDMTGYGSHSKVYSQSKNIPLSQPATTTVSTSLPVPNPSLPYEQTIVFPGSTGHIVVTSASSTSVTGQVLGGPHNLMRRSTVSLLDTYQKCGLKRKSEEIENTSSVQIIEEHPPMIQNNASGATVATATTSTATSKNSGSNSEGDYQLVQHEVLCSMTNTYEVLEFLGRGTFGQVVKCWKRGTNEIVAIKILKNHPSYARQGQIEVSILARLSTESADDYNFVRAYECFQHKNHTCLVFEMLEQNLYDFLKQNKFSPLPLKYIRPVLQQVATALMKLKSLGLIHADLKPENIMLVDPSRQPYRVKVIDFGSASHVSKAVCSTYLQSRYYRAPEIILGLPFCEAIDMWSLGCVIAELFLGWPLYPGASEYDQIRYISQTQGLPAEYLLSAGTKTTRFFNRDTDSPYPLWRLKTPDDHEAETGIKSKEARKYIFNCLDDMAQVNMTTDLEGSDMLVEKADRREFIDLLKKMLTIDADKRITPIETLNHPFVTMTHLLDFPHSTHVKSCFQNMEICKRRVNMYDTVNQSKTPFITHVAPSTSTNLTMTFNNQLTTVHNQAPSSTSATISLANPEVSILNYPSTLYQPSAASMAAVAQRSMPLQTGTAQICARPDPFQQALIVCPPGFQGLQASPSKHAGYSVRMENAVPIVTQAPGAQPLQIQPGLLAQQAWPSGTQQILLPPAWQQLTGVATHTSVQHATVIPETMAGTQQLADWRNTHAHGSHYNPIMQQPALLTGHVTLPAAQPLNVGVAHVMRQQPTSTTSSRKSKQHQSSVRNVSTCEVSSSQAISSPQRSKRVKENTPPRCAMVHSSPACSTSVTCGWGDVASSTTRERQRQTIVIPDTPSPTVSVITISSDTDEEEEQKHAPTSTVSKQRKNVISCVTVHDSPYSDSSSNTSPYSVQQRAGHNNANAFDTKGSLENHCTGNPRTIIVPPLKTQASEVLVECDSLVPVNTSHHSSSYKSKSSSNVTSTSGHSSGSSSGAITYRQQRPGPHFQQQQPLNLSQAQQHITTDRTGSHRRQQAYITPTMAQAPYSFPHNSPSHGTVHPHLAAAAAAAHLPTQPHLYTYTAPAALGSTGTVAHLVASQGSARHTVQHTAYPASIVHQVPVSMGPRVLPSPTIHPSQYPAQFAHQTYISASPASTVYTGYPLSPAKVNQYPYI

CN(C(=O)CN1CCOCC1)c1ccc2sc3c(-c4cccc5c(=O)cc(N6CC7CCC(C6)O7)oc45)cccc3c2c1 [NU5455]
inhibition at 1 µM: 7.8%
